Results as given in article doi:10.1101/2024.12.20.629780v2 (bioRxiv, 2024).
Ends that are not written are not given here.

Assays:
[1] = Solubility in autoclaved deionized water; format: physicochemical
[2] = test system: PMA-differentiated human monocytes (THP-1); assay: MTT cytotoxicity assay; format: cell-based; settings: Ala-scan
[3] = test system: S. aureus ATCC 12600; assay: Peritonitis/sepsis mouse model; format: in vivo, CD-1 mice
[4] = Resistance to proteolytic degradation in human serum; format: in vitro ADME; settings: 25% human serum in water
[5] = test system: S. aureus ATCC 12600; assay: Skin abscess infection mouse model; format: in vivo, CD-1 mice; settings: general indicator of potential toxicity

Compound | Solubility in autoclaved deionized water [1] | also measured
FRWWLYKRALAATTIAIKRRK [K16A-Turingcin-46] | Soluble | –
KRRAARIKQLRFIQQSLREERIIQKLIK [Turingcin-6] | Soluble | –
SRKYRQLAKYIWRNLANKNRLIIKA [Turingcin-15] | Soluble | –
KKRVYRQKIRLIKKAIFFKKR [Turingcin-18] | Soluble | –
LIWRRKIFRIKLRI [Turingcin-17] | Soluble | –
ARWWLYKRALAATTIKIKRRK [F1A-Turingcin-46] | Soluble | –
RIINIILNRNLKKIILAAAIRNAIRW [Turingcin-22] | Soluble | –
VMRRFFRLLRKIKL [Turingcin-23] | Soluble | –
RVWKTLRIKVYFARRKQR [Turingcin-25] | Soluble | –
KILIRKILTIIERKLLRSNLKS [Turingcin-12] | Soluble | –
FRWWLYKRALAATTIKIARRK [K18A-Turingcin-46] | Soluble | –
FRWWLYKRALAATTIKIKRRA [K21A-Turingcin-46] | Soluble | Cytotoxicity in PMA-differentiated THP-1 cells relative to Turingcin-46 [2]: reduced cytotoxicity
FAWWLYKRALAATTIKIKRRK [R2A-Turingcin-46] | Soluble | –
KIWKIKILRINKKTSSIIA [Turingcin-14] | Soluble | –
KQIKQRSIRIKIFKKIL [Turingcin-24] | Soluble | –
FRWWLYARALAATTIKIKRRK [K7A-Turingcin-46] | Soluble | –
KKVWYIKVKLALALIKNI [Turingcin-3] | Soluble | –

Compound | Solubility in autoclaved deionized water [1] | also measured
RLIKAILNRVWKAWAIQKK [Turingcin-2] | Soluble | –
KRIKILRKYKWNQQYKKKL [Turingcin-16] | Soluble | –
QRRVLRFKLNTKIARLINLNI [Turingcin-27] | Soluble | –
RILRKVWTAWLREAALTIKVKR [Turingcin-9] | Soluble | –
RRLNSKINLYLRIIIALINK [Turingcin-20] | Soluble | –
RWWYTSIIKKKLNKIIA [Turingcin-11] | Soluble | –
CNC(C)C1CCC(N)C(OC2C(N)CC(N)C(OC3OCC(C)(O)C(NC)C3O)C2O)O1 (stereo not shown) [gentamicin, reference compound] | – | Slope of intracellular versus extracellular bacterial loads (linear regression) ([3]; peritoneal lavage, log10 CFU, n = 9 per group): 1.37
KMWKLRIKLTI [Turingcin-13] | Soluble | –
RILRKWSNWWWNNWLIWK [Turingcin-28] | Soluble | –
FRWWAYKRALAATTIKIKRRK [L5A-Turingcin-46] | Soluble | Cytotoxicity in PMA-differentiated THP-1 cells relative to Turingcin-46 [2]: reduced cytotoxicity
FRWWLYKRALAATTIKAKRRK [I17A-Turingcin-46] | Soluble | –
WAVKSSRIIYTLLRKLKTWFNIKAK [Turingcin-8] | Soluble | –
FRWWLYKRALAATTIKIKRRK [Turingcin-46] | Soluble | remaining at 1 h, 7 mg mL-1 [4]: ~50%; Body weight change, skin abscess model [5]: no significant changes in body weight; Body weight change, peritonitis/sepsis model ([3]; at the tested dose): no significant changes in body weight
KLRSSKKIFQIAAKFNKLFRRK [Turingcin-26] | Soluble | –
FRWWLYKRALAATTAKIKRRK [I15A-Turingcin-46] | Soluble | –
FRWWLYKRAAAATTIKIKRRK [L10A-Turingcin-46] | Soluble | –

More lines, main results first:

Solubility in autoclaved deionized water [1] | Compound | also measured
Soluble | FRWWLYKRALAATTIKIKARK [R19A-Turingcin-46] | –
Soluble | FRWWLAKRALAATTIKIKRRK [Y6A-Turingcin-46] | –
Soluble | FRWWLYKRALAATAIKIKRRK [T14A-Turingcin-46] | –
Soluble | FRWWLYKRALAATTIKIKRAK [R20A-Turingcin-46] | Cytotoxicity in PMA-differentiated THP-1 cells relative to Turingcin-46 [2]: reduced cytotoxicity
Insoluble | KILWYRIILIRFQKVW [Turingcin-5] | –
Insoluble | WYLIRVALIAFKKA [Turingcin-21] | –
Soluble | FRWWLYKRALAAATIKIKRRK [T13A-Turingcin-46] | –
Soluble | FRWWLYKAALAATTIKIKRRK [R8A-Turingcin-46] | –
Insoluble | ILARLSSILKLI [Turingcin-4] | –
Soluble | RRWVHKILLIIIKILA [Turingcin-1] | –
Soluble | KKIIIKFLIFNTKL [Turingcin-19] | –
Soluble | FRWALYKRALAATTIKIKRRK [W4A-Turingcin-46] | Cytotoxicity in PMA-differentiated THP-1 cells relative to Turingcin-46 [2]: reduced cytotoxicity
Soluble | RYIRLLVILKLA [Turingcin-10] | –
Soluble | FRAWLYKRALAATTIKIKRRK [W3A-Turingcin-46] | –
Soluble | RLKSILLLIVTKINIRLKIA [Turingcin-7] | –
